Results from PMC5918173, “Characterization of Transglutaminase 2 activity inhibitors in monocytes in vitro and their effect in a mouse model for multiple sclerosis” (PLoS ONE, 2018).
pIC50: −log10 of the molar value.

Tests used:
[1] = tested on: EAE C57BL/6 mice; experiment: MOG35-55 induced EAE in C57BL/6 mice, treatment with TG2 inhibitors; format: in vivo, mouse; details: for loss of body weight compared to vehicle / severity of motor symptoms compared to vehicle: 25 mg/kg i.p. twice daily from onset of EAE symptoms
Source text: All animal experiments were approved by the animal ethical committee of the VU University Medical Center and carried out within the animal facility of the Vrije Universiteit Amsterdam (protocol number ANW14-02). C57BL/6 (C57BL/6JOlaHsd) mice were purchased from Harlan (The Netherlands) at an age of 10 weeks and acclimatized to the new environment with water and food access ad libitum for 2 weeks before EAE induction. Humane endpoints were taken into account to prevent unnecessary suffering of the animals.
Active EAE was induced with the myelin oligodendrocyte glycoprotein peptide amino acids 35-55 (MOG35-55) from a EAE induction kit (Hooke laboratories), according to the provided protocol. In short, mice were injected subcutaneously in the upper and lower back with 100 μl of an emulsion of MOG35-55 in complete Freund’s adjuvant (CFA, containing heat inactivated Mycobacterium tuberculosis) each. At 3 hours and 26 hours after the subcutaneous injection of the emulsion, mice received an intraperitoneal injection of 150 ng pertussis toxin dissolved in PBS (volume: 0.1 ml). Disease symptoms and bodyweight were assessed daily starting from day 7 after immunization according to the following scale: 0 no disease, 0.5: partial tail weakness, 1: tail paralysis, 2: hind limb weakness, 3: partial hind limb paralysis, 4: complete hind limb paralysis, 5: moribund, dead.
The mice were injected twice daily with BJJF078 (n = 11) or ERW1041 (n = 12), starting from the onset of EAE symptoms until the end of the experiment (day 21/day 28 after immunization). The EAE animals were injected intraperitoneally with an inhibitor dose of 25 mg/kg bodyweight (i.e. ~100 μl) containing 20% DMSO, while the corresponding control groups (n = 12 and n = 10) were injected with PBS in 20% DMSO.

[2] = target: T1, human TG1 (Homo sapiens, UniProt P22735); experiment: Inhibition of recombinant Transglutaminase activity (fluorescent substrate), human TG1; format: biochemical; details: human recombinant TG1, Fig 2B; read-out: IC50 to inhibit TG1
T1 construct: purchased Zedira
T1 sequence (P22735 1-817): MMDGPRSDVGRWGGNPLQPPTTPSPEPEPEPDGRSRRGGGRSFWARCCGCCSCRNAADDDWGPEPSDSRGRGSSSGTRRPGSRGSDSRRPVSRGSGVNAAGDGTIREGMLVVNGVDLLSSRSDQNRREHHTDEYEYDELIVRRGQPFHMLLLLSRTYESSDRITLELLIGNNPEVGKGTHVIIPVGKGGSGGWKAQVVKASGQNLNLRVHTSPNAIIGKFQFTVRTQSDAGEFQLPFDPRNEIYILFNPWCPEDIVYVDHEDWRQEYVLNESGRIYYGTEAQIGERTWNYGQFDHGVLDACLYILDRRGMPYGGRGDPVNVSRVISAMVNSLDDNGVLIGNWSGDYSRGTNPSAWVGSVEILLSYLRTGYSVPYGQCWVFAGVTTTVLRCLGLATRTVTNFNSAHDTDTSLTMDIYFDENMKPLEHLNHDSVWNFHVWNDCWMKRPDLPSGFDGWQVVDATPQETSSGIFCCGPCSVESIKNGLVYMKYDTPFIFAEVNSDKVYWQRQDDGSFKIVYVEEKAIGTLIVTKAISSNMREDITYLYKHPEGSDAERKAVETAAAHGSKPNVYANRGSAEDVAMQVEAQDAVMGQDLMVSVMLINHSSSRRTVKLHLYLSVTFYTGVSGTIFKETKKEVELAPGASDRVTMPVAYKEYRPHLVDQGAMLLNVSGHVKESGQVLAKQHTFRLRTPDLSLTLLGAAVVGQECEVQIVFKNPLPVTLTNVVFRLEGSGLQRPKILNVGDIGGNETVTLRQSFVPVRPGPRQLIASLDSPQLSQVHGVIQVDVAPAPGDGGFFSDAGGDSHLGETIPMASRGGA
Method: (§1) The potency and specificity of TG2 inhibitors was assessed with various recombinant TGs, as previously described. The reaction buffer (50 mM Tris, 100 mM NaCl, 10 mM CaCl2, 5 mM H-Gly-OMe*HCl (glycinemethylestherhydrochloride, Sigma), 5 mM hexadimethinbromide (Sigma), 9.1 mM DTT, pH 7.5) was heated to 37°C in a 96 well plate. Then 50 μM of the TG substrate Abz-NE(CAD-DNP)EQVSPLTLLK-OH (Zedira) was added. 1 μg/ml recombinant TG (human TG1, human (hTG2) / mouse TG2 (mTG2) or human Factor XIII (FXIII); Zedira) were added. The two lyophilized TG2 inhibitors (see Fig 1 for chemical structure) BJJF078 (3,4-Dimethoxy-N-(5-[4-(acryloylamino)piperidine-1-sulfonyl]-naphthalen-1-yl)-benzamide, kindly provided by Dr S. El Alaoui, Covalab, France) and ERW1041E (2-[(3-Bromo-4,5-dihydro-isoxazol-5-ylmethyl)-carbamoyl]-pyrrolidine-1—carboxylic acid quinolin-3-ylmethyl ester, kindly provided by Prof C. Khosla, Stanford University, USA) were dissolved in DMSO (stock solution: 54 mM) and stored at -80°C. These stocks were further diluted and various concentrations of the TG2 inhibitors (0.3 nM to 100 μM), were added to the wells (final DMSO concentration per well: 0.06%). The relative increase in fluorescence emission, correlating with enzymatic activity, was measured over 4 h with a fluorimeter (Excitation: 320nm, emission: 405 nm; Fluostar, GMB).

[3] = target: T2, human Factor XIII (FXIII) (Homo sapiens, UniProt P00488); experiment: Inhibition of recombinant Transglutaminase activity (fluorescent substrate), human Factor XIII; format: biochemical; details: Fig 2C, read-out: IC50 to inhibit FXIII activity
T2 construct: purchased Zedira
T2 sequence (P00488 1-732): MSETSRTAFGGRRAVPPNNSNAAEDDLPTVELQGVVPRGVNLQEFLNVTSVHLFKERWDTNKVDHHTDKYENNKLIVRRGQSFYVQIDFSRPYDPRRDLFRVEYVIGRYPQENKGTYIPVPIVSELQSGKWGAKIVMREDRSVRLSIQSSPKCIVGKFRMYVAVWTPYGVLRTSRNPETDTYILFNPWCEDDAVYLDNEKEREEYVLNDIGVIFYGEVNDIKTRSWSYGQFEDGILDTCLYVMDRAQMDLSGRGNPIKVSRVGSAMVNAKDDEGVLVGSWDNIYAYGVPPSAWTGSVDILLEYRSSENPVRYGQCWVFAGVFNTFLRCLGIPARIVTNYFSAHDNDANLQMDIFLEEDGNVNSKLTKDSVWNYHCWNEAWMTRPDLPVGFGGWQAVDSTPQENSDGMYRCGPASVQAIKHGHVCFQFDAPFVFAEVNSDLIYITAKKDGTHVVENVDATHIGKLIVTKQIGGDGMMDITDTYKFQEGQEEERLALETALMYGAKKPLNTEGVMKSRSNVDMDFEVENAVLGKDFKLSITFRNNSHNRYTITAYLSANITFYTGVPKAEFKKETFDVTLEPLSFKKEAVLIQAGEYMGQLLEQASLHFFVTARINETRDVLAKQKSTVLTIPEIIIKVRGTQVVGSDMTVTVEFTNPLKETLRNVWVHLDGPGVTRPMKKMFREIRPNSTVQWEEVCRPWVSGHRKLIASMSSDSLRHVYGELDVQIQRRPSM
Method: as §1

Compound	loss of body weight compared to vehicle [1]	severity of motor symptoms compared to vehicle [1]	pIC50 [2]	pIC50 [3]	average maximal disease score ([1]; 25 mg/kg i.p. twice daily from onset, scale 0-5, vehicle 3.9)
C=CC(=O)NC1CCN(S(=O)(=O)c2cccc3c(NC(=O)c4ccc(OC)c(OC)c4)cccc23)CC1 [BJJF078, 3,4-Dimethoxy-N-(5-[4-(acryloylamino)piperidine-1-sulfonyl]-naphthalen-1-yl)-benzamide]	no differences	no differences	6.80	4.66	
O=C(NCC1CC(Br)=NO1)C1CCCN1C(=O)OCc1cnc2ccccc2c1 (stereo not drawn) [ERW1041E, 2-[(3-Bromo-4,5-dihydro-isoxazol-5-ylmethyl)-carbamoyl]-pyrrolidine-1—carboxylic acid quinolin-3-ylmethyl ester]	not affected	modest but significant reduction	6.36	4.28	3.4 score
